# Source: paper PMC11587516 (ACS Chemical Neuroscience, 2024)
# Biological target: T1, hGAT2 (Homo sapiens, UniProt Q9NSD5)
# T1 construct: expressed in transfected cells
# T1 sequence (Q9NSD5 1-602): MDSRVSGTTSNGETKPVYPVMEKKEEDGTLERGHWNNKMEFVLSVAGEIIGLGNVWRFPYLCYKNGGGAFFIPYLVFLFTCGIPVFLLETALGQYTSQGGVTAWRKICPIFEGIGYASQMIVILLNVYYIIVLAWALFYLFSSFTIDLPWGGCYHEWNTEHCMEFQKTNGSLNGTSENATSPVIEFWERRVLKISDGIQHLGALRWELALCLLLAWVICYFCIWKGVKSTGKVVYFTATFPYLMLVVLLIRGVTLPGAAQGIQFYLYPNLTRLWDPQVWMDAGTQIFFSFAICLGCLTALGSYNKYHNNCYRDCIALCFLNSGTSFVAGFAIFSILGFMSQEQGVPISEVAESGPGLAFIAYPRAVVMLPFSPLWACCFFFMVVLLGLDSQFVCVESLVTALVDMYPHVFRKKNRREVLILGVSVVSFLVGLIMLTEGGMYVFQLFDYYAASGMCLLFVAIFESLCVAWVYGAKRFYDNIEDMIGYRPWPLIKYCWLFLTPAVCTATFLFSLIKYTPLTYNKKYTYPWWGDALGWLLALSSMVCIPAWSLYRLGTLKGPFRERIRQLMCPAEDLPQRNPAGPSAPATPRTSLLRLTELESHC
# Assay: [3H]GABA uptake assay, CHO cells stably expressing hGAT2
# Type: cell-based
compound,measurement,setting,value
NC12CC(C(=O)O)(C1)C2 [Compound 9],IC50,,> 100 µM
same,inhibition at 100 µM,"CHO, read-out: inhibition of GABA uptake",~25%
